Earlier results as cited in US6436344B1, “Method of inactivating pathogens” (American National Red Cross, priority 1999, dated 2002).

Target: T1, human coagulation Factor IX (Homo sapiens, UniProt P00740)
T1 construct: highly-purified human coagulation Factor IX, a labile plasma clotting factor; from tissue
Conditions: treatment with molecular iodine; cited from earlier work

T1 sequence (P00740 47-461): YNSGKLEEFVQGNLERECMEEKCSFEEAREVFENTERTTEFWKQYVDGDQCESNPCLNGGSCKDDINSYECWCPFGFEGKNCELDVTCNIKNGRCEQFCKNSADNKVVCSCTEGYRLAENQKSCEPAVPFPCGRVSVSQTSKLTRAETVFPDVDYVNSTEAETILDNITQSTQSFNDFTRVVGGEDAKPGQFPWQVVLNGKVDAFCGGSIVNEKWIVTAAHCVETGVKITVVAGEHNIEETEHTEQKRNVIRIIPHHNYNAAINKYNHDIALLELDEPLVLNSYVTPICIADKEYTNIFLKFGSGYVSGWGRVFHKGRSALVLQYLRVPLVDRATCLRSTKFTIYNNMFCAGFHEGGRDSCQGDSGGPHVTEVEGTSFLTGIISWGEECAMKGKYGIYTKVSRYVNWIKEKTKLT

For `II` [molecular iodine], the “effect on Factor IX” value is given as “completely inactivate”.
